{
  "source": "paper PMC3388911",
  "about": "“Structure of Leishmania major cysteine synthase” (Acta Crystallographica Section F: Structural Biology and …, 2012)",
  "key": {"[1]": {"target": "T1, LmCS (L. major cysteine synthase) (Leishmania major, UniProt Q4Q159)", "T1 sequence (Q4Q159 1-333)": "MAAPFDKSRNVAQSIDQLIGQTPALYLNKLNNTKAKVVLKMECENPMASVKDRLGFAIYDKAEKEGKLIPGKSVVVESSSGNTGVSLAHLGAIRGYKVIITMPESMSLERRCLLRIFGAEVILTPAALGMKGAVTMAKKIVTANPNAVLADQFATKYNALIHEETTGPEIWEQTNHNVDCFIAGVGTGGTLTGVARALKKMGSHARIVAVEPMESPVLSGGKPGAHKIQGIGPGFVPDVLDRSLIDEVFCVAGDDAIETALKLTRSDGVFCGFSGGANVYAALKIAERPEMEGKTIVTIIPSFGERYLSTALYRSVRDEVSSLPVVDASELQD", "assay": "biochemical"}, "[2]": {"target": "T2, AtOAS-TL (A. thaliana O-acetylserine thiol-lyase) (Arabidopsis thaliana, UniProt P47998)", "T2 sequence (P47998 whole entry)": "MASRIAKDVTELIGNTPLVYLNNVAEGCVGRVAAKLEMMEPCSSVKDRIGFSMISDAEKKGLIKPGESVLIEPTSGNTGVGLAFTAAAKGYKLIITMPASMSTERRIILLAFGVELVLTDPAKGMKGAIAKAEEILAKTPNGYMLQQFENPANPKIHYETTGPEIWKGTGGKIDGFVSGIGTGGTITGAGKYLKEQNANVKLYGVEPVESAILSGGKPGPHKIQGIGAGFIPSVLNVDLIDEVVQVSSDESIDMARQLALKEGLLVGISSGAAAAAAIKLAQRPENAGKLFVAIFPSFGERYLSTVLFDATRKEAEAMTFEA", "conditions": "read-out: AtOAS-TL IC50; 3 mM OAS, 2 mM sodium sulfide, pH 7.8, room temperature; values with ± are mean ± SD of three determinations, others single IC50 curve"}, "[3]": {"system": "Mycobacterium tuberculosis CS (OASS)", "conditions": "ref Schnell et al., 2007; cited from earlier work"}, "[4]": {"target": "T2, AtOAS-TL (A. thaliana O-acetylserine thiol-lyase)", "assay": "biochemical"}, "[5]": {"target": "Arabidopsis thaliana O-acetylserine thiol-lyase (Arabidopsis thaliana, UniProt P47998 1-322)", "sequence (P47998 whole entry)": "as above", "assay": "cell-based or functional assay"}, "[6]": {"target": "T3, Leishmania major cysteine synthase, C-terminally His-tagged (biochemical analysis) (Leishmania major) (UniProt Q4Q159)", "T3 sequence": "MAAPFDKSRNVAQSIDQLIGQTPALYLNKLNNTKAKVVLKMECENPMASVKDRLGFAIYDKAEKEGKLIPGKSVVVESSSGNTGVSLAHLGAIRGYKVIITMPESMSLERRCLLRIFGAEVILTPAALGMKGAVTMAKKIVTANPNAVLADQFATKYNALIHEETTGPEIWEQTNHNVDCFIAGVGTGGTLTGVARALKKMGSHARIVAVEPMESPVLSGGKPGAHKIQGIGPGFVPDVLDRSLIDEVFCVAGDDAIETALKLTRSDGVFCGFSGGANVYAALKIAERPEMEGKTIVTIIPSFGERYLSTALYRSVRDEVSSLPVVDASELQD"}, "[7]": {"target": "Arabidopsis thaliana O-acetylserine thiol-lyase (Arabidopsis thaliana) (UniProt P47998)", "sequence (P47998 whole entry)": "as the sequence (P47998 whole entry) above"}, "[8]": {"target": "the molecule itself", "assay": "crystal structure; hanging drop at 293 K, 7.5% PGA-LM, 19% PEG 3350, 0.1 M Tris-HCl pH 7.8; P212121, dimer in the asymmetric unit; 1.8 Å; molecular replacement"}, "[9]": {"conditions": "LmCS IC50, 3 mM OAS, 2 mM sodium sulfide, pH 7.8, room temperature, values with ± are mean ± SD of three determinations, others single IC50 curve"}, "[10]": {"conditions": "3 mM OAS, 2 mM sodium sulfide, pH 7.8, room temperature, values with ± are mean ± SD of three determinations, others single IC50 curve, read-out: LmCS IC50"}},
  "note": "Like-named read-outs stand apart in the source and are kept apart here. Where a SMILES comes first, the peptide text is derived from it. Where no end group is shown, it is not given here. The star is where a group is joined. Cbz = O=C(OCc1ccccc1)*",
  "data": [
    {"molecule": "CC[C@H](C)[C@H](NC(=O)[C@@H](NC(=O)[C@H](Cc1ccc(O)cc1)NC(=O)[C@@H](N)CC(=O)O)C(C)C)C(=O)O", "note": "[DYVI] (H-DYVI-OH)", "values": [
      {"measurement": "Ki", "setting": "[1]", "result": 4, "unit": "µM"},
      {"measurement": "IC50", "setting": "[1]; [9]", "result": "7 ± 1", "unit": "µM"}
    ]},
    {"molecule": "CC[C@H](C)[C@H](NC(=O)CNC(=O)[C@H](CO)NC(=O)CN)C(=O)O", "note": "[GSGI] (H-GSGI-OH)", "values": [
      {"measurement": "IC50", "setting": "[2]", "result": "≤ 2000", "unit": "µM"},
      {"measurement": "IC50", "setting": "[1]; LmCS IC50, 3 mM OAS, 2 mM sodium sulfide", "result": "~1500", "unit": "µM"},
      {"measurement": "IC50", "setting": "[1]; [9]", "result": 1500, "unit": "µM"}
    ]},
    {"molecule": "CC[C@H](C)[C@H](N)C(=O)O", "note": "[L-Isoleucine]", "values": [
      {"measurement": "IC50", "setting": "[1]; [10]", "result": "> 4000", "unit": "µM"},
      {"measurement": "inhibition of LmCS", "setting": "[1]; at 4 mM", "result": "no activity"}
    ]},
    {"molecule": "CC[C@H](C)[C@H](NC(=O)Cc1c[nH]c2ccccc12)C(=O)O", "note": "[N-3-Indolylacetyl-L-isoleucine]", "values": [
      {"measurement": "IC50", "setting": "[1]; [10]", "result": 260, "unit": "µM"}
    ]},
    {"molecule": "CC[C@H](C)[C@H](NC(=O)OCc1ccccc1)C(=O)O", "note": "[N-CBZ-L-isoleucine]", "values": [
      {"measurement": "IC50", "setting": "[1]", "result": 320, "unit": "µM"}
    ]},
    {"molecule": "CC[C@H](C)[C@H](NC(=O)[C@@H](NC(=O)OCc1ccccc1)C(C)C)C(=O)O", "note": "[N-CBZ-L-valine-isoleucine] (Cbz-Val-Ile-OH)", "values": [
      {"measurement": "IC50", "setting": "[1]", "result": 1410, "unit": "µM"}
    ]},
    {"molecule": "(γ-Glu)4", "values": [
      {"measurement": "inhibition of LmCS", "setting": "[1]; tested up to a concentration of 500 µM", "result": "unable to detect any significant inhibition"},
      {"measurement": "inhibition of LmCS", "setting": "[1]; tested up to a concentration of 500 µM, listed as D-glutamate tetrapeptide", "result": "insignificant inhibitory activity"}
    ]},
    {"molecule": "DFSI", "values": [
      {"measurement": "type of inhibition of M. tuberculosis OASS", "setting": "[3]", "result": "competitive inhibitor"}
    ]},
    {"molecule": "DGSGI [DGSGI]", "values": [
      {"measurement": "IC50", "setting": "[4]", "result": 170, "unit": "µM"},
      {"measurement": "IC50", "setting": "[1]; [9]", "result": "620 ± 50", "unit": "µM"}
    ]},
    {"molecule": "EGDGSGI [EGDGSGI]", "values": [
      {"measurement": "IC50", "setting": "[4]", "result": 240, "unit": "µM"},
      {"measurement": "IC50", "setting": "[1]; [9]", "result": "270 ± 70", "unit": "µM"}
    ]},
    {"molecule": "DYVI (not fully specified)", "note": "[DYVI, peptide based on the C-terminus of A. thaliana serine acetyltransferase]", "values": [
      {"measurement": "IC50 of inhibition of cysteine synthase activity (cysteine production; 3 mM OAS, 2 mM sodium sulfide)", "setting": "[5]", "result": 8, "unit": "µM"},
      {"measurement": "IC50 of inhibition of cysteine synthase activity (cysteine production; 3 mM OAS, 2 mM sodium sulfide)", "setting": "[6]", "result": 7, "unit": "µM"}
    ]},
    {"molecule": "DGSGI", "note": "[DGSGI, Leishmania SAT C-terminal peptide]", "values": [
      {"measurement": "IC50 of inhibition of cysteine synthase activity (cysteine production; 3 mM OAS, 2 mM sodium sulfide)", "setting": "[6]", "result": 620, "unit": "µM"},
      {"measurement": "IC50 of inhibition of cysteine synthase activity (cysteine production; 3 mM OAS, 2 mM sodium sulfide); single IC50 curve", "setting": "[7]", "result": 170, "unit": "µM"}
    ]},
    {"molecule": "Leishmania major cysteine synthase (crystallised form, His tag cleaved) (enzyme, Leishmania major cysteine synthase (EC 2.5.1.47); LmCS gene subcloned from pET21a+ into pET15bTEV; theoretical mass of one subunit 35.6 kDa; residues 3-213 and 241-333 (subunit A) and 4-214 and 241-333 (subunit B) are seen in the model; The pyridoxal phosphate cofactor was lost in the crystal; A fragment of gamma-poly-D-glutamic acid lies in the active site; also called LmCS; L. major CS; source: …) MAAPFDKSRNVAQSIDQLIGQTPALYLNKLNNTKAKVVLKMECENPMASVKDRLGFAIYDKAEKEGKLIPGKSVVVESSSGNTGVSLAHLGAIRGYKVIITMPESMSLERRCLLRIFGAEVILTPAALGMKGAVTMAKKIVTANPNAVLADQFATKYNALIHEETTGPEIWEQTNHNVDCFIAGVGTGGTLTGVARALKKMGSHARIVAVEPMESPVLSGGKPGAHKIQGIGPGFVPDVLDRSLIDEVFCVAGDDAIETALKLTRSDGVFCGFSGGANVYAALKIAERPEMEGKTIVTIIPSFGERYLSTALYRSVRDEVSSLPVVDASELQD", "values": [
      {"measurement": "stoichiometry N", "setting": "[8]", "result": 2}
    ]},
    {"molecule": "EGDGSGI", "note": "[EGDGSGI, Leishmania SAT C-terminal heptapeptide]", "values": [
      {"measurement": "IC50 of inhibition of cysteine synthase activity (cysteine production; 3 mM OAS, 2 mM sodium sulfide)", "setting": "[6]", "result": 270, "unit": "µM"},
      {"measurement": "IC50 of inhibition of cysteine synthase activity (cysteine production; 3 mM OAS, 2 mM sodium sulfide); single IC50 curve", "setting": "[7]", "result": 240, "unit": "µM"}
    ]},
    {"molecule": "GSGI", "note": "[GSGI, Leishmania SAT C-terminal peptide]", "values": [
      {"measurement": "IC50 of inhibition of cysteine synthase activity (cysteine production; 3 mM OAS, 2 mM sodium sulfide); single IC50 curve", "setting": "[6]", "result": 1500, "unit": "µM"},
      {"measurement": "IC50 of inhibition of cysteine synthase activity (cysteine production; 3 mM OAS, 2 mM sodium sulfide); single IC50 curve", "setting": "[7]", "result": "< 2000", "unit": "µM"}
    ]}
  ]
}
